Where two headings read alike, the source gives them in different places.
Experiments:
[1] = system: human stomach cancer cells MKN-74 cocultured with normal stromal cells derived from the human stomach, Hs738; test: Cell proliferation test, coculture test with normal stromal cells Hs738 (GFP fluorescence); type: cell-based
Experimental: Human stomach cancer cells MKN-74 (Riken Cell Bank) were cultured at 37° C. and 5% CO2 in DMEM supplemented with 10% FBS (product of GIBCO Co.), 100 units/mL penicillin G (product of Invitrogen Co.), and 100 μg/mL streptomycin (product of Invitrogen Co.).
The above cancer cells were allowed to undergo gene transfer of Green fluorescence protein (GFP) expression vector, pEGFP-C1 (product of BD Biosciences Co.) using the Lipofectamine reagent (product of Invitrogen Co.), to thereby clone cells stably expressing GFP.
Normal stromal cells derived from the human stomach, Hs738 ((CRL-7869), ATCC) were cultured at 37° C. and 5% CO2 in DMEM supplemented with 10% FBS, 100 units/mL penicillin G (product of Invitrogen Co.), 100 μg/mL streptomycin (product of Invitrogen Co.), 5 μg/mL insulin, 5 μg/mL transferrin (product of Wako Pure Chemical Industries Co.), 1.4 μM hydrocortisone (product of Sigma Co.), and […] basic-FGF (product of Pepro Tech Co.).
The above normal stromal cells derived from the human stomach, Hs738 were dispersed at 5×10^4 cells/mL in DMEM containing 1% dialyzed serum, 5 μg/mL insulin, 5 μg/mL transferrine (product of Wako Pure Chemical Industries Co.), and 1.4 μM hydrocortisone (product of Sigma Co.), and were placed in a 96-well plate at 0.1 mL/well. Respective evaluation samples (the compounds expressed by Structural Formulas (1) to (13)) were added thereto at respective concentrations, followed by culturing at 37° C. and 5% CO2 for 2 days.
Next, the above human stomach cancer cells MKN-74 were dispersed in DMEM at 5×10^5 cells/mL, and were placed at 10 μL/well in the plate in which the above normal stromal cells derived from the human stomach, Hs738 had been cultured, followed by further coculturing at 37° C. and 5% CO2 for 3 days.
Measurement of cell proliferation rates in the above coculture test and monoculture test was performed in the following manner.
The medium was removed from the wells of the above plate, and a cytolysis liquid (10 mM Tris-HCl [pH 7.4], 150 mM NaCl, 0.9 mM CaCl2, and 1% Triton X-100) was added thereto at 0.1 mL/well to lyse the cells. The fluorescence intensity of GFP was measured at an excitation wavelength of 485 nm and a fluorescence wavelength of 538 nm, and the cell proliferation rates were calculated from the following formula. Cell proliferation rate (%)=(Fluorescence intensity in the presence of the evaluation sample/Fluorescence intensity in the absence of the evaluation sample)×100

[2] = system: Staphylococcus aureus FDA209P strain; test: Measurement of MIC for Staphylococcus aureus; type: cell-based; conditions: read-out: MIC Staphylococcus aureus FDA209P
Experimental: (§1) Each of the above compounds was measured for minimum inhibitory concentration (MIC) for Staphylococcus aureus and Escherichia coli.
(§2) Staphylococcus aureus FDA209P strain and Escherichia coli K-12 strain each were cultured under shaking in a nutrient broth medium (polypeptone (product of NIHON PHARMACEUTICAL Co.) 1%, fish extract for bacteria (product of KYOKUTO PHARMACEUTICAL INDUSTRIAL Co.) 1%, and sodium chloride 0.2%) at 37° C. overnight.
(§3) After completion of the culturing, the culture was diluted with the nutrient broth medium so that the bacteria were 2×10^6 CFU/mL to 9×10^6 CFU/mL.
(§4) Each of the test samples (each of the above compounds, clarithromycin, and ampicillin) was prepared with the nutrient broth medium to have a concentration of 256 mg/L. From this concentration, the test sample was 2-fold diluted serially in 11 steps to 0.125 mg/L.
(§5) The above-diluted culture was added at 50 μL/well to 50 μL/well of the nutrient broth medium containing each of the test samples at the above concentrations, and was statically cultured at 37° C. overnight. After completion of the culturing, the presence or absence of proliferation of each bacterium was visually determined based on turbidity, and the MIC for each bacterial strain was obtained.

[3] = system: Escherichia coli K-12 strain; test: Measurement of MIC for Escherichia coli; type: cell-based; conditions: K12STRAIN, read-out: MIC Escherichia coli K-12
Experimental: as §1, §2, §3, §4, §5

[4] = system: human stomach cancer cells MKN-74; test: Anti-cancer activity in vivo, Test Example 2-1: MKN-74 alone, subcutaneous tumor in nude mice; design: species or system BALB/c nu/nu nude mice; conditions: intravenous administration at 12.5 mg/kg, FIGS. 1A, 1B
Experimental: BALB/c nu/nu nude mice (female, 5 weeks old, product of Charles River Co.) were bred under the SPF conditions.
Cultured human stomach cancer cells MKN-74 were trypsinized, and the human stomach cancer cells MKN-74 (8×10^6 cells) peeled off from the culture dish were dispersed in 0.3 mL DMEM containing 10% FBS and mixed with 0.5 mL growth factor-reduced Matrigel (product of BD Biosciences Co.).
The above mixed cell liquid (0.1 mL) (cancer cells: 1×10^6 cells) was subcutaneously inoculated to the left groin region of the above mice.
The compound expressed by the Structural Formula (2) or the compound expressed by the Structural Formula (13) was intravenously administered for a predetermined period, and tumor formed under the skin was cut out and measured for weight. Note that, the administration dose of the compound expressed by the Structural Formula (2) or the compound expressed by the Structural Formula (13) was 12.5 mg/kg per administration day.
Also, a tumor volume was calculated from the following formula referring to the above NPL 1. Tumor volume (mm^3)=(major axis×minor axis^2)/2
Note that, as controls, those to which physiological saline (vehicle) was administered instead of the compound expressed by the Structural Formula (2) or the compound expressed by the Structural Formula (13) were tested in the same manner.

[5] = system: human stomach cancer cells MKN-74 and normal stromal cells derived from the human stomach, Hs738; test: Anti-cancer activity in vivo, Test Example 2-2: MKN-74 and stromal cells Hs738, subcutaneous tumor in nude mice; design: species or system BALB/c nu/nu nude mice; conditions: tumor transplanted together with stromal cells Hs738, intravenous administration at 12.5 mg/kg, FIGS. 1C, 1D
Experimental: A test was performed in the same manner as in Test Example 2-1 except that the use of the human stomach cancer cells MKN-74 alone in Test Example 2-1 was changed to use of the human stomach cancer cells MKN-74 and the normal stromal cells derived from the human stomach, Hs738.
Note that, a cell liquid and inoculation of the cell liquid to mice were as follows.
Cultured human stomach cancer cells MKN-74 and normal stromal cells derived from the human stomach, Hs738 were respectively trypsinized to be peeled off from the culture dishes. The above human stomach cancer cells MKN-74 (8×10^6 cells) and the above normal stromal cells derived from the human stomach, Hs738 (8×10^6 cells) were dispersed in 0.3 mL DMEM containing 10% FBS and mixed with 0.5 mL growth factor-reduced Matrigel (product of BD Biosciences Co.).
The above mixed cell liquid (0.1 mL) (a mixture of cancer cells: 1×10^6 cells, and stromal cells: 1×10^6 cells) was subcutaneously inoculated to the left groin region of the above mice.

[6] = coculture test, MKN-74 with stromal cells Hs738, cell proliferation rate, average of duplicate, read-out: Cocul IC50
[7] = nutrient broth medium, 37° C. overnight

SMILES	IC50 [1, 6] [µg/mL]	MIC [2] [µg/mL]	MIC [3, 7] [µg/mL]	tumor suppression (tumor volume, tumor weight Day 21) [4]	MIC [2, 7] [µg/mL]	IC50 ([1]; MKN-74, read-out: Cocul IC50) [µg/mL]	tumor suppression (tumor volume, tumor weight Day 21) [5]	MIC [3] [µg/mL]
Cc1c(CCCC/C=C/C(C)C)[nH]c2ccccc2c1=O [Structural Formula (3)]	0.012	> 128	> 128	–	–	–	–	–
CCCCCCCCc1c(C)c(=O)c2ccccc2n1CC(=O)O [Structural Formula (6)]	4.15	128	128	–	–	–	–	–
CCCCCCCCc1nc2ccccc2c(OCC(=O)O)c1C [Structural Formula (2)]	0.37	–	128	significant suppression	> 128	–	–	–
Cc1c(CC(C)C)[nH]c2ccccc2c1=O [Structural Formula (4)]	1.32	128	128	–	–	–	–	–
CCCCCCCCc1c(C)c(=O)c2ccccc2n1CC(=O)OC [Structural Formula (5)]	0.53	> 128	> 128	–	–	–	–	–
CCCCCCCc1c(C)c(=O)c2ccccc2n1CNC(=S)SC [Structural Formula (12)]	–	> 128	> 128	–	–	2.91	–	–
CCCCCCCc1c(C)c(=O)c2ccccc2n1CN=C(SC)SC [Structural Formula (13)]	–	4	> 128	–	–	0.78	significant suppression	–
CCCCCCCc1c(C)c(=O)c2ccccc2n1CN=C=S [Structural Formula (11)]	0.12	–	–	–	4	–	–	> 128
